Source: patent US20100189648A1, “INHIBITORS FOR DISRUPTING THE INTERACTION OF UBIQUITINATION RELATED ENZYMES AND USES THEREOF” (priority 2006, published 2010)

Assays:
Assay type in all cases: cell-based, human
[1] = system: SMMC-7721; assay: MTT survival assay, liver cancer cell line (SMMC-7721)
Description: (§1) The effect of the above identified compounds on anti-tumor activity in human carcinoma cells was determined by the MTT survival assay. The MTT assay is a commonly used method in evaluation of cell survival, based on the ability of viable cells to convert MTT (MTT, Sigma, Cat No. 044K5307), a soluble tetrazolium salt [3-(4,5-dimethylthuazole-2-yl)-2,5 diphenyl tetrazolium bromide], into an insoluble formazan precipitate, which is quantitated by spectrophotometry following solubilization in dimethyl sulfoxide (DMSO).
(§2) In brief, different carcinoma cells were treated with negative control, various test articles at different concentration, and positive control (DDP), in 96-well tissue culture dishes. Each test article at different concentration is repeated 3 times.
(§3) Different carcinoma cells were diluted with 10% FBS and RPM1640 or MEM media to a concentration of 3-5×10^4 per ml suspension. 100 microliter of cells were incubated in each well in 96-well tissue culture dishes at 37 C. The cells were incubated at 37 C on the first day. On the second day, media supernatant was removed and replaced with media and different concentration of test articles (100 microliter in each well). Three Negative control wells and three positive control (DDP) wells were also included. The 96-well plate were incubated at 37 C for another 68 hours. After 68 hours, supernatant of each well was removed. 100 microliter of 1 mg/ml MTT diluted in PBS was injected into each well. The cells were incubated at 37 C for another 4 hours. The cells were then solubilized in 150 microliter DMSO, mixed for 10 minutes and absorbance readings were taken using Microplate reader Bio-Rad Model 550 at 570 nm. IR (cell growth inhibition rate) % was calculated as (OD570 of negative control-OD570 with test article)/OD570 of negative control. IC50 (cell 50% inhibition concentration) at 95% confidence level was calculated with Bliss method.

[2] = system: A459; assay: MTT survival assay, lung cancer cell line (A459); parameters: IC50 (95% confidence level), interval: unit not given beside the values; conditions: for IC50 (95% confidence level), interval: 95% confidence limits of IC50; for IC50 (95% confidence level): Bliss method, unit not printed (concentrations in μg/ml)
Description: as §1, §2, §3

[3] = system: U251; assay: MTT survival assay, glioma cell line (brain tumor U251); conditions: for IC50 (95% confidence level): Bliss method, unit not printed (concentrations in μg/ml)
Description: as §1, §2, §3

[4] = system: HCT116; assay: MTT survival assay, colon cancer cell line (HCT116); parameters: IC50 (95% confidence level), interval: unit not given beside the values
Description: as §1, §2, §3

[5] = system: MCF-7; assay: MTT survival assay, breast cancer cell line (MCF-7); parameters: IC50 (95% confidence level), interval: unit not given beside the values
Description: as §1, §2, §3

[6] = system: SKOV3; assay: MTT survival assay, ovarian cancer cell line (SKOV3); conditions: for IC50 (95% confidence level): Bliss method, unit not printed (concentrations in μg/ml)
Description: as §1, §2, §3

[7] = system: Hela cells; assay: MTT survival assay, cervical cancer line (Hela cells); parameters: IC50 (95% confidence level), interval: unit not given beside the values
Description: as §1, §2, §3

[8] = SMMC-7721 Experiment #2, 0.25 μg/ml
[9] = SMMC-7721 Experiment #2, 1 μg/ml
[10] = SMMC-7721 Experiment #2, 4 μg/ml
[11] = A459 Experiment #2, 0.0625 μg/ml
[12] = U251 (first table), 0.0625 μg/ml
[13] = U251 (second table), 0.0625 μg/ml
[14] = U251 (second table), 0.25 μg/ml
[15] = Bliss method, unit not printed (concentrations in μg/ml)
[16] = SKOV3 (first table), 0.0625 μg/ml
[17] = SKOV3 (first table), 0.25 μg/ml
[18] = SKOV3 (second table), 0.0625 μg/ml
[19] = SKOV3 (second table), 0.25 μg/ml

SMILES: N.N.[Cl][Pt][Cl] [DDP, cisplatin, reference compound]
- IR (%) ([1]; SMMC-7721, 0.0625 μg/ml): −29.4%
- OD(A570 nm) ([1]; SMMC-7721, 0.0625 μg/ml): 0.570 ± 0.166
- IR (%) ([1]; SMMC-7721, 0.25 μg/ml): 46.2%
- OD(A570 nm) ([1]; SMMC-7721, 0.25 μg/ml): 0.237 ± 0.020
- IR (%) ([1]; SMMC-7721, 1 μg/ml): 71.0%
- OD(A570 nm) ([1]; SMMC-7721, 1 μg/ml): 0.128 ± 0.011
- IR (%) ([1]; SMMC-7721, 4 μg/ml): 61.6%
- OD(A570 nm) ([1]; SMMC-7721, 4 μg/ml): 0.169 ± 0.022
- IR (%) [1, 8]: 24.5%
- OD(A570 nm) [1, 8]: 0.348 ± 0.045
- IR (%) [1, 9]: 43.1%
- OD(A570 nm) [1, 9]: 0.262 ± 0.020
- IR (%) [1, 10]: 47.0%
- OD(A570 nm) [1, 10]: 0.244 ± 0.155
- IC50 (95% confidence level), interval ([1]; SMMC-7721 Experiment #2, 95% confidence limits of IC50): 3.757-4.640
- IC50 (95% confidence level) ([1]; SMMC-7721 Experiment #2, Bliss method, unit not printed (concentrations in μg/ml)): 4.155
- IR (%) ([2]; A459, 0.0625 μg/ml): 23.9%
- OD(A570 nm) ([2]; A459, 0.0625 μg/ml): 0.485 ± 0.046
- IR (%) ([2]; A459, 0.25 μg/ml): 18.8%
- OD(A570 nm) ([2]; A459, 0.25 μg/ml): 0.517 ± 0.073
- IR (%) ([2]; A459, 1 μg/ml): 46.4%
- OD(A570 nm) ([2]; A459, 1 μg/ml): 0.341 ± 0.060
- IR (%) ([2]; A459, 4 μg/ml): 71.0%
- IC50 (95% confidence level), interval ([2]; A459): 1.113-1.213
- IC50 (95% confidence level) ([2]; A459): 1.162
- IR (%) [2, 11]: 23.9%
- OD(A570 nm) [2, 11]: 0.485 ± 0.046
- IR (%) ([2]; A459 Experiment #2, 0.25 μg/ml): 18.8%
- OD(A570 nm) ([2]; A459 Experiment #2, 0.25 μg/ml): 0.517 ± 0.073
- IR (%) ([2]; A459 Experiment #2, 1 μg/ml): 46.4%
- OD(A570 nm) ([2]; A459 Experiment #2, 1 μg/ml): 0.341 ± 0.060
- IR (%) ([2]; A459 Experiment #2, 4 μg/ml): 71.0%
- IC50 (95% confidence level), interval ([2]; A459 Experiment #2): 1.114-1.213
- IC50 (95% confidence level) ([2]; A459 Experiment #2): 1.162
- IR (%) [3, 12]: 16.8%
- OD(A570 nm) [3, 12]: 0.729 ± 0.090
- IR (%) ([3]; U251 (first table), 0.25 μg/ml): 21.5%
- OD(A570 nm) ([3]; U251 (first table), 0.25 μg/ml): 0.688 ± 0.035
- IR (%) ([3]; U251 (first table), 1 μg/ml): 58.4%
- OD(A570 nm) ([3]; U251 (first table), 1 μg/ml): 0.365 ± 0.058
- IR (%) ([3]; U251 (first table), 4 μg/ml): 80.2%
- OD(A570 nm) ([3]; U251 (first table), 4 μg/ml): 0.174 ± 0.009
- IC50 (95% confidence level) ([3]; U251 (first table)): 1.13
- IR (%) [3, 13]: 16.8%
- OD(A570 nm) [3, 13]: 0.729 ± 0.090
- IR (%) [3, 14]: 21.5%
- OD(A570 nm) [3, 14]: 0.688 ± 0.035
- IR (%) ([3]; U251 (second table), 1 μg/ml): 58.4%
- OD(A570 nm) ([3]; U251 (second table), 1 μg/ml): 0.365 ± 0.058
- IR (%) ([3]; U251 (second table), 4 μg/ml): 80.2%
- OD(A570 nm) ([3]; U251 (second table), 4 μg/ml): 0.174 ± 0.009
- IC50 (95% confidence level) ([3]; U251 (second table)): 1.13
- IR (%) ([4]; 0.25 μg/ml): 51.0%
- OD(A570 nm) ([4]; 0.25 μg/ml): 0.266 ± 0.016
- IR (%) ([4]; 1 μg/ml): 62.9%
- OD(A570 nm) ([4]; 1 μg/ml): 0.201 ± 0.060
- IR (%) ([4]; 4 μg/ml): 75.5%
- OD(A570 nm) ([4]; 4 μg/ml): 0.133 ± 0.016
- IC50 (95% confidence level), interval ([4]; 95% confidence limits of IC50): 0.211-0.257
- IC50 (95% confidence level) [4, 15]: 0.234
- IR (%) ([5]; 0.0625 μg/ml): 12.8%
- OD(A570 nm) ([5]; 0.0625 μg/ml): 0.787 ± 0.005
- IR (%) ([5]; 0.25 μg/ml): 2.6%
- OD(A570 nm) ([5]; 0.25 μg/ml): 0.879 ± 0.059
- IR (%) ([5]; 1 μg/ml): 83.3%
- OD(A570 nm) ([5]; 1 μg/ml): 0.151 ± 0.011
- IR (%) ([5]; 4 μg/ml): 88.2%
- OD(A570 nm) ([5]; 4 μg/ml): 0.107 ± 0.007
- IC50 (95% confidence level), interval ([5]; 95% confidence limits of IC50): 0.483-0.737
- IC50 (95% confidence level) [5, 15]: 0.596
- IR (%) [6, 16]: 1.6%
- OD(A570 nm) [6, 16]: 0.689 ± 0.065
- IR (%) [6, 17]: 8.3%
- OD(A570 nm) [6, 17]: 0.643 ± 0.141
- IR (%) ([6]; SKOV3 (first table), 1 μg/ml): 62.0%
- OD(A570 nm) ([6]; SKOV3 (first table), 1 μg/ml): 0.267 ± 0.044
- IR (%) ([6]; SKOV3 (first table), 4 μg/ml): 88.2%
- OD(A570 nm) ([6]; SKOV3 (first table), 4 μg/ml): 0.083 ± 0.002
- IC50 (95% confidence level) ([6]; SKOV3 (first table)): 0.89
- IR (%) [6, 18]: 1.6%
- OD(A570 nm) [6, 18]: 0.689 ± 0.065
- IR (%) [6, 19]: 8.3%
- OD(A570 nm) [6, 19]: 0.643 ± 0.141
- IR (%) ([6]; SKOV3 (second table), 1 μg/ml): 62.0%
- OD(A570 nm) ([6]; SKOV3 (second table), 1 μg/ml): 0.267 ± 0.044
- IR (%) ([6]; SKOV3 (second table), 4 μg/ml): 88.2%
- OD(A570 nm) ([6]; SKOV3 (second table), 4 μg/ml): 0.083 ± 0.002
- IC50 (95% confidence level) ([6]; SKOV3 (second table)): 0.89
- IR (%) ([7]; 0.0625 μg/ml): 35.3%
- OD(A570 nm) ([7]; 0.0625 μg/ml): 0.481 ± 0.081
- IR (%) ([7]; 0.25 μg/ml): 72.2%
- OD(A570 nm) ([7]; 0.25 μg/ml): 0.206 ± 0.014
- IR (%) ([7]; 1 μg/ml): 83.4%
- OD(A570 nm) ([7]; 1 μg/ml): 0.123 ± 0.007
- IR (%) ([7]; 4 μg/ml): 89.5%
- OD(A570 nm) ([7]; 4 μg/ml): 0.078 ± 0.001
- IC50 (95% confidence level), interval ([7]; 95% confidence limits of IC50): 0.062-0.156
- IC50 (95% confidence level) [7, 15]: 0.105
